# Legend:
# [1] = tested on: rabbit synovial cell line (HIG-82); assay: Inflammatory cytokine and MMP gene expression induction by LPA in rabbit synovial cell line; type: cell-based
# Method: EDG2 is a GPCR having lysophosphatidic acid (LPA) as a ligand thereof. For LPA, four receptors, including EDG2, have been reported (EDG2, EDG4, EDG7 and GPR23). To analyze the tissue distributions of these four LPA receptors, an expression quantitation analysis by quantitative real-time PCR in various human tissues was performed. On 500 ng of total RNA of each of various human tissues (Human Total RNA Master Panel, Clontech), reverse transcription was performed using Multiscribe reverse transcriptase (Applied biosystems) and a random hexamer, whereby a cDNA was obtained. Quantitation of the LPA receptor genes was performed using QuantiTect STBR Green PCR (Qiagen) on the ABI PRISM 7700 sequence detection system (Applied biosystems) as directed in the documentation attached. The number of copies of each gene was calculated using a working curve. The amount of each gene was standardized by being divided by the number of copies of the G3PDH gene. A Toyobo product was used as the primer for the G3PDH gene. […] In these organs, the amount of the EDG2 gene expressed was about 20 to 100 times as high as other LPA receptor genes; this gene is a dominant LPA receptor (FIG. 2). The EDG2 gene was also found to be expressed at moderate levels in the adrenal, cerebellum, lung, placenta, prostate, testis, thyroid, trachea, and uterus (FIG. 2). In these tissues, EDG2 was not always a dominant LPA receptor.
# The inflammatory cytokine expression induction reaction of LPA in a rabbit synovial cell line was analyzed. The method used is described below. A rabbit synovial cell line (HIG-82) was purchased from ATCC. The HIG-82 was cultured using Ham's F-12 medium (Invitrogen) containing 10% fetal bovine serum (FBS) and antibiotics (100 U/ml penicillin G and 100 μg/ml streptomycin). The HIG-82 was seeded to a 24-well plate at a ratio of 1×10^5 cells/well, and cultured until they became confluent. Twelve hours before performing LPA stimulation, the medium was replaced with Ham's F-12 medium containing 0.1% fatty acid free bovine serum albumin (Sigma). In the time-related change analysis, 12 hours after the medium replacement, the cells were stimulated with 10 μM LPA; 0, 2, 4, 8, 12 and 24 hours later, total RNA was extracted using ISOGEN (Nippon Gene), and the amounts expressed of the TNFA and IL1B genes, which are inflammatory cytokine genes, and of the MMP1, MMP3 and MMP13 genes, which are MMP genes, were quantified by a method in accordance with Example 10 (n=4). In the dose dependency test, 12 hours after the medium replacement, the cells were stimulated with 0, 0.1, 1 and 10 μM LPA; 2 hours later, total RNA was extracted using ISOGEN (Nippon Gene), and the amounts expressed of the TNFA and IL1B genes, which are inflammatory cytokine genes, were quantified by the same method as with the time-related change test (n=4). As a result of the time-related change test of inflammatory cytokine genes with LPA stimulation, the amounts expressed of the TNFA and IL1B genes rose transiently, with peaks reached 2 hours later (FIGS. 9a and b). The amounts expressed of the MMP1, MMP3 and MMP13 genes, which are MMP genes, rose transiently, with peaks reached 4, 4 and 8 hours later, respectively. As a result of the dose dependency test, it was shown that LPA raised the expression of inflammatory cytokine genes dose-dependently. The amount expressed of the IL1B gene nearly reached a plateau at 1 μM, whereas the amount expressed of the TNFA gene rose dose-dependently up to 10 μM. The results above are well similar to the results for HFLS-OA shown in Example 17, showing that in HIG-82 cells as well, the expression of inflammatory cytokine genes is induced with LPA stimulation, and the expression of MMPs is induced paracrinely.
# EDG2 = EDG2 (Homo sapiens, UniProt Q92633); assay: Intracellular Ca2+ concentration (FLIPR tetra) in McA-RH7777 cells stably expressing EDG2; type: cell-based; design: Dainippon Pharmaceutical Co., Ltd. (cells); host or cells: McA-RH7777; conditions: 0.03 to 10 μM LPA
# Chain of EDG2 (Q92633 whole entry): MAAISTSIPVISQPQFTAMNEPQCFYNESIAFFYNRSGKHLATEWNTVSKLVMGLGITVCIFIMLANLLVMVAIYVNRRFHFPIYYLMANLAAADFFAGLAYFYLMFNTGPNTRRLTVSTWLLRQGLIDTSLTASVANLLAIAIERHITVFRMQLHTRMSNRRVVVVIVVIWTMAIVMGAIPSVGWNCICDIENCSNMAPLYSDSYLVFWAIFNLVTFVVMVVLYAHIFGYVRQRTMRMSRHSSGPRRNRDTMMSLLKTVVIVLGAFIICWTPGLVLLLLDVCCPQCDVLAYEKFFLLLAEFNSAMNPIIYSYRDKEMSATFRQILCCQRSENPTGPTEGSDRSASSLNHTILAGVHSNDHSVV
# Method: A forcible expression vector comprising an ORF sequence of human EDG2 [hEDG2-pcDNA3.1(+)] was purchased from UMR cDNA Resource Center. This plasmid was introduced into McA-RH7777 (Dainippon Pharmaceutical Co., Ltd.) using Lipofectamine LTX (Invitrogen), and the cells were cultured in a medium containing Geneticin for 14 to 20 days to acquire cells that stably express EDG2.
# Next, an evaluation was made using FLIPR tetra (Molecular Devices) to confirm that stimulation with LPA raised intracellular Ca concentrations via the EDG2 expressed. That is, these cells were seeded to a 384-well plate, 0.03 to 10 μM LPA (Sigma) was added to each well, and it was confirmed that rises in intracellular Ca^2+ concentration occurred. LPA dose-dependently.
smiles,measurement,setting,value
"CCCCCCCC/C=C\CCCCCCCC(=O)OC[C@@H](O)COP(=O)(O)O [LPA, 1-Oleoyl-sn-Glycero-3-Phosphate]","rise of expression of inflammatory cytokine genes (TNFA, IL1B)","[1]; 0, 0.1, 1 and 10 μM LPA, 2 hours, n=4",dose-dependently
same,time of peak of IL1B gene expression,"[1]; 10 μM LPA, transient rise, n=4",2 h
same,time of peak of MMP1 gene expression,"[1]; 10 μM LPA, transient rise, n=4",4 h
same,time of peak of MMP3 gene expression,"[1]; 10 μM LPA, transient rise, n=4",4 h
same,time of peak of MMP13 gene expression,"[1]; 10 μM LPA, transient rise, n=4",8 h
same,time of peak of TNFA gene expression,"[1]; 10 μM LPA, transient rise, n=4",2 h
same,LPA concentration at which IL1B gene expression nearly reached a plateau,"[1]; dose dependency test, 2 hours",1 µM
same,LPA concentration up to which TNFA gene expression rose dose-dependently,"[1]; dose dependency test, 2 hours",up to 10 μM
same,rises in intracellular Ca2+ concentration,EDG2,dose-dependently

# Reference: patent US20100239501A1, “GENE SENSITIVE TO BONE/JOINT DISEASE AND USE THEREOF” (RIKEN, priority 2007, published 2010)
